# Where “and” joins values, the source holds several entries; their conditions need not be identical. Identical values can stand only once. Toxic doses and inconclusive results are not listed.
# Test system: P388 leukemia ip, CD2F1 mice, survival T/C
# Experiment: NCI In Vivo Anticancer Drug Screen. Data for tumor model P388 Leukemia (intraperitoneal) in CD2F1 (CDF1) mice
# Conditions: endpoint: median survival time, higher = longer survival
# How it was run: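 Mice carrying the transplanted tumor received test compound or vehicle. Survival was recorded in each group, and the value is the treated-group measurement divided by that of the vehicle-treated control group.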
# [1] = dose: 15.0 mg/kg/injection, schedule: Q01DX005 (ip), vehicle: saline with Tween-80
# [2] = dose: 30.0 mg/kg/injection, schedule: Q01DX005 (ip), vehicle: saline with Tween-80
# [3] = dose: 60.0 mg/kg/injection, schedule: Q01DX005 (ip), vehicle: saline with Tween-80
# [4] = dose: 50.0 mg/kg/injection, schedule: Q01DX009 (ip), vehicle: saline with Tween-80
# [5] = dose: 100.0 mg/kg/injection, schedule: Q01DX009 (ip), vehicle: saline with Tween-80
# [6] = dose: 50.0 mg/kg/injection, schedule: Q01DX009 (ip), vehicle: Klucel (hydroxypropylcellulose) (HPC)
# [7] = dose: 100.0 mg/kg/injection, schedule: Q01DX009 (ip), vehicle: Klucel (hydroxypropylcellulose) (HPC)
# [8] = dose: 200.0 mg/kg/injection, schedule: Q01DX009 (ip), vehicle: Klucel (hydroxypropylcellulose) (HPC)
# [9] = dose: 120.0 mg/kg/injection, schedule: Q01DX005 (ip), vehicle: saline with Tween-80
# [10] = dose: 240.0 mg/kg/injection, schedule: Q01DX005 (ip), vehicle: saline with Tween-80
# [11] = dose: 200.0 mg/kg/injection, schedule: Q01DX009 (ip), vehicle: saline with Tween-80
# [12] = dose: 50.0 mg/kg/injection, schedule: Q01DX009 (ip), vehicle: saline
# [13] = dose: 400.0 mg/kg/injection, schedule: Q01DX009 (ip), vehicle: Klucel (hydroxypropylcellulose) (HPC)
# [14] = dose: 50.0 mg/kg/injection, schedule: Q01DX005 (ip), vehicle: saline with Tween-80
# [15] = dose: 100.0 mg/kg/injection, schedule: Q01DX005 (ip), vehicle: saline with Tween-80
# [16] = dose: 200.0 mg/kg/injection, schedule: Q01DX005 (ip), vehicle: saline with Tween-80
compound,measurement,setting,value
COc1cccc(Sc2ccc([N+](=O)[O-])c3no[n+]([O-])c23)c1,T/C,"dose: 0.93 mg/kg/injection, schedule: Q01DX005 (ip), vehicle: saline with Tween-80",100 % of control
same,T/C,"dose: 0.93 mg/kg/injection, schedule: Q01DX009 (ip), vehicle: saline with Tween-80",157 % of control
same,T/C,"dose: 1.56 mg/kg/injection, schedule: Q01DX005 (ip), vehicle: saline with Tween-80",100 % of control and 97 % of control
same,T/C,"dose: 1.87 mg/kg/injection, schedule: Q01DX005 (ip), vehicle: saline with Tween-80",99 % of control
same,T/C,"dose: 1.87 mg/kg/injection, schedule: Q01DX009 (ip), vehicle: saline with Tween-80",163 % of control
same,T/C,"dose: 3.12 mg/kg/injection, schedule: Q01DX005 (ip), vehicle: saline with Tween-80",100 % of control and 102 % of control
same,T/C,"dose: 3.75 mg/kg/injection, schedule: Q01DX005 (ip), vehicle: saline with Tween-80",99 % of control
same,T/C,"dose: 3.75 mg/kg/injection, schedule: Q01DX009 (ip), vehicle: saline with Tween-80",99 % of control
same,T/C,"dose: 6.25 mg/kg/injection, schedule: Q01DX005 (ip), vehicle: saline with Tween-80",100 % of control and 106 % of control
same,T/C,"dose: 7.5 mg/kg/injection, schedule: Q01DX005 (ip), vehicle: saline with Tween-80",102 % of control
same,T/C,"dose: 12.5 mg/kg/injection, schedule: Q01DX005 (ip), vehicle: saline with Tween-80",102 % of control and 106 % of control
same,T/C,[1],106 % of control
same,T/C,"dose: 15.0 mg/kg/injection, schedule: Q01DX009 (ip), vehicle: Klucel (hydroxypropylcellulose) (HPC)",184 % of control
same,T/C,"dose: 15.0 mg/kg/injection, schedule: Q01DX009 (ip), vehicle: saline with Tween-80",107 % of control
same,T/C,"dose: 25.0 mg/kg/injection, schedule: Q01DX005 (ip), vehicle: saline with Tween-80",108 % of control and 111 % of control
same,T/C,[2],109 % of control
same,T/C,"dose: 30.0 mg/kg/injection, schedule: Q01DX009 (ip), vehicle: Klucel (hydroxypropylcellulose) (HPC)",166 % of control
same,T/C,[3],110 % of control
same,T/C,"dose: 60.0 mg/kg/injection, schedule: Q01DX009 (ip), vehicle: Klucel (hydroxypropylcellulose) (HPC)",88 % of control
O=[N+]([O-])CC(OCCCCCCO)C(Cl)(Cl)Cl (stereo not given),T/C,[4],100 % of control
same,T/C,[5],95 % of control
Cc1cc(C)c2nc(N/N=C/c3cccnc3)sc2c1,T/C,[6],95 % of control
same,T/C,[7],92 % of control
same,T/C,[8],92 % of control
COc1cccc(C(c2cc3c(cc2O)OCO3)N2CCOCC2)c1O (stereo not given),T/C,[3],114 % of control (2×) and 116 % of control
same,T/C,[9],108 % of control and 116 % of control and 122 % of control
same,T/C,[10],109 % of control and 112 % of control
same,T/C,"dose: 480.0 mg/kg/injection, schedule: Q01DX005 (ip), vehicle: saline with Tween-80",118 % of control
CCC(C)(CC)OC(N)=O,T/C,"dose: 25.0 mg/kg/injection, schedule: Q01DX009 (ip), vehicle: saline with Tween-80",100 % of control
same,T/C,[4],91 % of control
same,T/C,[5],109 % of control
same,T/C,[11],105 % of control
CCOC(OCC)c1cccc([N+](=O)[O-])c1,T/C,"dose: 100.0 mg/kg/injection, schedule: Q04DX003 (ip), vehicle: saline with Tween-80",112 % of control
same,T/C,"dose: 200.0 mg/kg/injection, schedule: Q04DX003 (ip), vehicle: saline with Tween-80",106 % of control
same,T/C,"dose: 400.0 mg/kg/injection, schedule: Q04DX003 (ip), vehicle: saline with Tween-80",117 % of control
CC(=O)NC1C(OC(C)=O)C(OC(C)=O)C(COC(C)=O)OC1[N+](=O)[O-] (stereo not given),T/C,[3],101 % of control
same,T/C,[9],94 % of control
same,T/C,[10],99 % of control
CN1C(=O)C2CCCN2C(=O)C1(C)NC(=O)OCc1ccccc1 (stereo not given),T/C,"dose: 3.12 mg/kg/injection, schedule: Q04DX003 (ip), vehicle: saline",107 % of control and 98 % of control
same,T/C,"dose: 6.25 mg/kg/injection, schedule: Q04DX003 (ip), vehicle: saline",105 % of control and 98 % of control
same,T/C,"dose: 12.5 mg/kg/injection, schedule: Q04DX003 (ip), vehicle: saline",102 % of control and 105 % of control
same,T/C,"dose: 25.0 mg/kg/injection, schedule: Q04DX003 (ip), vehicle: saline",99 % of control and 107 % of control
same,T/C,"dose: 25.0 mg/kg/injection, schedule: Q04DX003 (ip), vehicle: suspension in saline",100 % of control
COc1ccc(Cl)cc1NC(=O)NNC(=O)C(=O)NC1CC1,T/C,[4],100 % of control
same,T/C,[5],97 % of control
same,T/C,[11],102 % of control
NC1(c2ccccc2)CCCCC1,T/C,"dose: 12.5 mg/kg/injection, schedule: Q01DX009 (ip), vehicle: saline",99 % of control
same,T/C,"dose: 25.0 mg/kg/injection, schedule: Q01DX009 (ip), vehicle: saline",106 % of control
same,T/C,[12],105 % of control
OCC1OC(n2cnc3c(NO)ncnc32)C(O)C1O (stereo not given),T/C,"dose: 12.5 mg/kg/injection, schedule: Q01DX009 (ip), vehicle: Klucel (hydroxypropylcellulose) (HPC)",102 % of control
same,T/C,"dose: 25.0 mg/kg/injection, schedule: Q01DX009 (ip), vehicle: Klucel (hydroxypropylcellulose) (HPC)",100 % of control
same,T/C,[6],99 % of control and 109 % of control and 110 % of control
same,T/C,[7],100 % of control and 107 % of control and 113 % of control
same,T/C,[8],103 % of control and 113 % of control and 97 % of control
same,T/C,[13],102 % of control and 119 % of control
COc1cc2c(cc1OC)[C@H]1[C@H](C)c3ccc4c(c3CN1CC2)OCO4,T/C,"dose: 12.5 mg/kg/injection, schedule: Q04DX002 (ip), vehicle: Klucel (hydroxypropylcellulose) (HPC)",97 % of control
same,T/C,"dose: 25.0 mg/kg/injection, schedule: Q04DX002 (ip), vehicle: Klucel (hydroxypropylcellulose) (HPC)",95 % of control
same,T/C,"dose: 50.0 mg/kg/injection, schedule: Q04DX002 (ip), vehicle: Klucel (hydroxypropylcellulose) (HPC)",103 % of control and 106 % of control
O=C1CC2C(C1Nc1ccccc1)C1C(=Nc3ccccc3)C(Nc3ccccc3)=CC1N2c1ccccc1 (stereo not given),T/C,"dose: 7.5 mg/kg/injection, schedule: Q01DX005 (ip), vehicle: Klucel (hydroxypropylcellulose) (HPC)",100 % of control
same,T/C,"dose: 15.0 mg/kg/injection, schedule: Q01DX005 (ip), vehicle: Klucel (hydroxypropylcellulose) (HPC)",97 % of control
same,T/C,"dose: 30.0 mg/kg/injection, schedule: Q01DX005 (ip), vehicle: Klucel (hydroxypropylcellulose) (HPC)",95 % of control
CCn1c(=N)sc2nc3ccccc3n2c1=O,T/C,"dose: 60.0 mg/kg/injection, schedule: Q01DX005 (ip), vehicle: Klucel (hydroxypropylcellulose) (HPC)",103 % of control
same,T/C,"dose: 120.0 mg/kg/injection, schedule: Q01DX005 (ip), vehicle: Klucel (hydroxypropylcellulose) (HPC)",103 % of control
O=C(c1ccc(Cl)c(Cl)c1)N1CCNC1=S,T/C,[6],104 % of control
same,T/C,[7],104 % of control
same,T/C,[8],100 % of control
CC1=NOC(=O)/C1=C/c1ccc(Cl)c(Cl)c1,T/C,[14],112 % of control
same,T/C,[15],114 % of control
Nc1cccc2c1C(=O)c1cccc(N)c1C2=O,T/C,[14],100 % of control
same,T/C,[6],97 % of control
same,T/C,[15],91 % of control
same,T/C,[7],100 % of control
same,T/C,[16],100 % of control
same,T/C,[8],108 % of control
same,T/C,[13],104 % of control
C=C1[C@@]2(O)CCCC[C@@H]2C[N+]1(C)C,T/C,[12],91 % of control
same,T/C,"dose: 100.0 mg/kg/injection, schedule: Q01DX009 (ip), vehicle: saline",90 % of control
same,T/C,"dose: 200.0 mg/kg/injection, schedule: Q01DX009 (ip), vehicle: saline",95 % of control
O=c1[nH][nH]c(=O)n2c1cc1oc(-c3ccccc3)cc12,T/C,[3],86 % of control
same,T/C,[9],90 % of control
same,T/C,[10],86 % of control
Oc1ccccc1C=Nc1ccc2c(ccc3c4ccccc4ccc23)c1,T/C,"dose: 50.0 mg/kg/injection, schedule: Q01DX005 (ip), vehicle: Klucel (hydroxypropylcellulose) (HPC)",111 % of control
same,T/C,"dose: 100.0 mg/kg/injection, schedule: Q01DX005 (ip), vehicle: Klucel (hydroxypropylcellulose) (HPC)",102 % of control
same,T/C,"dose: 200.0 mg/kg/injection, schedule: Q01DX005 (ip), vehicle: Klucel (hydroxypropylcellulose) (HPC)",116 % of control
CCN(CC)C(=S)N1C(=O)C2C3CCC(O3)C2C1=O (stereo not given),T/C,[1],101 % of control
same,T/C,[2],104 % of control
same,T/C,[3],110 % of control
O=C(Nc1cccc(Cl)c1)OCC(COC(=O)Nc1cccc(Cl)c1)(COC(=O)Nc1cccc(Cl)c1)[N+](=O)[O-],T/C,[14],95 % of control
same,T/C,[15],98 % of control
same,T/C,[16],100 % of control

# Source: PubChem BioAssay AID330 (DTP/NCI, 2004)
